Assay results published in ChEMBL document CHEMBL4184086, “Sinopestalotiollides A-D, cytotoxic diphenyl ether derivatives from plant endophytic fungus Pestalotiopsis palmarum” (Bioorg Med Chem Lett, 2018).

Columns and labels:
Format in all cases: functional, cell-based
HeLa = assay: Cytotoxicity against human HeLa cells by WST-8 assay
HCT-116 = assay: Cytotoxicity against human HCT116 cells by WST-8 assay
A549 = assay: Cytotoxicity against human A549 cells by WST-8 assay

Structure (SMILES) | IC50 (HeLa) [µM] | IC50 (HCT-116) [µM] | IC50 (A549) [µM]
C=C(C)C(O)Cc1ccc2c(c1OC)C(=O)OCc1cc(C)cc(O)c1O2 (configuration not stated) | 12.8 | 22.7 | 44.9
COc1cccc2c1C(=O)c1c(O)c3c(c(O)c1C2=O)C[C@@](O)(C(=O)CO)C[C@@H]3O[C@H]1C[C@H](N)[C@H](O)[C@H](C)O1 [DOXORUBICIN] | 8.96 | 2.38 | 
C=C(C)C(CO)c1ccc2c(c1OC)C(=O)OCc1cc(C)cc(O)c1O2 (configuration not stated) | 18.9 | 15.7 | 31.3
COC1=CC(=O)OC(CO)C1 (configuration not stated) | 15.6 | 24.4 | 47.8
COc1c(/C=C/C(C)(CO)OC)ccc2c1C(=O)OCc1cc(C)cc(O)c1O2 (configuration not stated) | 1.19 | 2.66 | 2.14
COc1c(C(CO)C(C)C)ccc2c1C(=O)OCc1cc(C)cc(O)c1O2 (configuration not stated) | 14.7 | 18.5 | 36.1
